Results taken from the NIST ThermoML archive (doi:10.1016/j.jct.2016.06.012).

Experiment: xn = mol fraction of the nth substance listed
Details: 100 kPa, Liquid; for viscosity: Capillary tube (Ostwald / Ubbelohde) method; for mass density: Vibrating tube method

CCCCn1cc[n+](C)c1C.O=S(=O)([N-]S(=O)(=O)C(F)(F)F)C(F)(F)F + O=C1CCCO1
Details	mass density [kg/m3]	viscosity [mPa·s]
293.15 K, x1 = 0.0532	1183	2.62
293.15 K, x1 = 0.1004	1219.51	3.65
293.15 K, x1 = 0.1504	1250.59	4.95
293.15 K, x1 = 0.1999	1275.61	6.54
293.15 K, x1 = 0.2988	1314.04	10.79
293.15 K, x1 = 0.4006	1342.77	17.78
293.15 K, x1 = 0.5005	1364.2	26.66
293.15 K, x1 = 0.5999	1381	40.38
293.15 K, x1 = 0.7	1394.71	56.57
293.15 K, x1 = 0.8013	1406.18	79.17
293.15 K, x1 = 0.8986	1415.43	102.22
293.15 K, x1 = 1	1423.72	133.59
298.15 K, x1 = 0.0532	1178.1	2.43
298.15 K, x1 = 0.1004	1214.61	3.29
298.15 K, x1 = 0.1504	1245.77	4.48
298.15 K, x1 = 0.1999	1270.81	5.77
298.15 K, x1 = 0.2988	1309.26	9.32
298.15 K, x1 = 0.4006	1338.05	14.92
298.15 K, x1 = 0.5005	1359.5	22.02
298.15 K, x1 = 0.5999	1376.34	32.56
298.15 K, x1 = 0.7	1390.08	44.79
298.15 K, x1 = 0.8013	1401.56	60.93
298.15 K, x1 = 0.8986	1410.81	78.62
298.15 K, x1 = 1	1419.13	101.34
303.15 K, x1 = 0.0532	1173.22	2.23
303.15 K, x1 = 0.1004	1209.75	2.98
303.15 K, x1 = 0.1504	1240.94	4.01
303.15 K, x1 = 0.1999	1266	5.11
303.15 K, x1 = 0.2988	1304.49	8.06
303.15 K, x1 = 0.4006	1333.32	12.72
303.15 K, x1 = 0.5005	1354.8	18.27
303.15 K, x1 = 0.5999	1371.67	26.34
303.15 K, x1 = 0.7	1385.42	35.8
303.15 K, x1 = 0.8013	1396.93	48.32
303.15 K, x1 = 0.8986	1406.19	61.12
303.15 K, x1 = 1	1414.52	77.86
308.15 K, x1 = 0.0532	1168.35	2.05
308.15 K, x1 = 0.1004	1204.91	2.72
308.15 K, x1 = 0.1504	1236.11	3.65
308.15 K, x1 = 0.1999	1261.18	4.57
308.15 K, x1 = 0.2988	1299.72	7.1
308.15 K, x1 = 0.4006	1328.58	10.83
308.15 K, x1 = 0.5005	1350.1	15.54
308.15 K, x1 = 0.5999	1366.99	21.9
308.15 K, x1 = 0.7	1380.78	29.22
308.15 K, x1 = 0.8013	1392.3	39.19
308.15 K, x1 = 0.8986	1401.58	48.88
308.15 K, x1 = 1	1409.91	61.73
313.15 K, x1 = 0.0532	1163.43	1.9
313.15 K, x1 = 0.1004	1200.07	2.49
313.15 K, x1 = 0.1504	1231.24	3.28
313.15 K, x1 = 0.1999	1256.38	4.11
313.15 K, x1 = 0.2988	1294.96	6.29
313.15 K, x1 = 0.4006	1323.85	9.4
313.15 K, x1 = 0.5005	1345.39	13.32
313.15 K, x1 = 0.5999	1362.33	18.32
313.15 K, x1 = 0.7	1376.14	24.44
313.15 K, x1 = 0.8013	1387.67	32.14
313.15 K, x1 = 0.8986	1396.98	39.87
313.15 K, x1 = 1	1405.31	49.77
318.15 K, x1 = 0.0532	1158.58	1.74
318.15 K, x1 = 0.1004	1195.18	2.3
318.15 K, x1 = 0.1504	1226.41	3.06
318.15 K, x1 = 0.1999	1251.54	3.74
318.15 K, x1 = 0.2988	1290.17	5.63
318.15 K, x1 = 0.4006	1319.11	8.18
318.15 K, x1 = 0.5005	1340.7	11.52
318.15 K, x1 = 0.5999	1357.64	15.42
318.15 K, x1 = 0.7	1371.48	20.51
318.15 K, x1 = 0.8013	1383.04	26.78
318.15 K, x1 = 0.8986	1392.36	32.9
318.15 K, x1 = 1	1400.7	40.7
323.15 K, x1 = 0.0532	1153.71	1.63
323.15 K, x1 = 0.1004	1190.32	2.12
323.15 K, x1 = 0.1504	1221.58	2.72
323.15 K, x1 = 0.1999	1246.73	3.39
323.15 K, x1 = 0.2988	1285.42	5.03
323.15 K, x1 = 0.4006	1314.4	7.22
323.15 K, x1 = 0.5005	1336.03	10.06
323.15 K, x1 = 0.5999	1352.99	13.17
323.15 K, x1 = 0.7	1366.86	17.44
323.15 K, x1 = 0.8013	1378.44	22.39
323.15 K, x1 = 0.8986	1387.78	27.46
323.15 K, x1 = 1	1396.13	33.69

CCn1cc[n+](C)c1C.O=S(=O)([N-]S(=O)(=O)C(F)(F)F)C(F)(F)F + O=C1CCCO1
Details	mass density [kg/m3]	viscosity [mPa·s]
293.15 K, x1 = 0.0493	1186.33	2.39
293.15 K, x1 = 0.1001	1232.87	3.16
293.15 K, x1 = 0.1526	1271.98	4.27
293.15 K, x1 = 0.2001	1301.42	5.28
293.15 K, x1 = 0.3001	1350.26	8.11
293.15 K, x1 = 0.4013	1387.19	12.59
293.15 K, x1 = 0.5004	1415.28	19.41
293.15 K, x1 = 0.5995	1437.76	29.23
293.15 K, x1 = 0.6929	1455.24	40.61
293.15 K, x1 = 0.814	1473.91	57.8
293.15 K, x1 = 0.9001	1485.09	71.36
293.15 K, x1 = 1	1496.32	89.27
298.15 K, x1 = 0.0493	1181.34	2.2
298.15 K, x1 = 0.1001	1227.92	2.88
298.15 K, x1 = 0.1526	1267.02	3.89
298.15 K, x1 = 0.2001	1296.47	4.75
298.15 K, x1 = 0.3001	1345.33	7.21
298.15 K, x1 = 0.4013	1382.26	10.79
298.15 K, x1 = 0.5004	1410.36	16.23
298.15 K, x1 = 0.5995	1432.85	23.73
298.15 K, x1 = 0.6929	1450.35	32.36
298.15 K, x1 = 0.814	1469.03	45.73
298.15 K, x1 = 0.9001	1480.21	56.03
298.15 K, x1 = 1	1491.47	70.77
303.15 K, x1 = 0.0493	1176.42	2.02
303.15 K, x1 = 0.1001	1222.97	2.64
303.15 K, x1 = 0.1526	1262.07	3.55
303.15 K, x1 = 0.2001	1291.53	4.31
303.15 K, x1 = 0.3001	1340.4	6.49
303.15 K, x1 = 0.4013	1377.35	9.66
303.15 K, x1 = 0.5004	1405.48	13.87
303.15 K, x1 = 0.5995	1427.99	19.69
303.15 K, x1 = 0.6929	1445.51	26.32
303.15 K, x1 = 0.814	1464.21	36.61
303.15 K, x1 = 0.9001	1475.4	45.12
303.15 K, x1 = 1	1486.67	57.02
308.15 K, x1 = 0.0493	1171.5	1.87
308.15 K, x1 = 0.1001	1218.03	2.42
308.15 K, x1 = 0.1526	1257.12	3.23
308.15 K, x1 = 0.2001	1286.58	3.92
308.15 K, x1 = 0.3001	1335.47	5.84
308.15 K, x1 = 0.4013	1372.45	8.44
308.15 K, x1 = 0.5004	1400.6	11.97
308.15 K, x1 = 0.5995	1423.13	16.7
308.15 K, x1 = 0.6929	1440.66	21.94
308.15 K, x1 = 0.814	1459.39	30.04
308.15 K, x1 = 0.9001	1470.6	36.72
308.15 K, x1 = 1	1481.87	46.6
313.15 K, x1 = 0.0493	1166.58	1.74
313.15 K, x1 = 0.1001	1213.09	2.24
313.15 K, x1 = 0.1526	1252.18	2.97
313.15 K, x1 = 0.2001	1281.64	3.59
313.15 K, x1 = 0.3001	1330.56	5.24
313.15 K, x1 = 0.4013	1367.56	7.44
313.15 K, x1 = 0.5004	1395.73	10.46
313.15 K, x1 = 0.5995	1418.28	14.19
313.15 K, x1 = 0.6929	1435.84	18.31
313.15 K, x1 = 0.814	1454.58	24.98
313.15 K, x1 = 0.9001	1465.81	30.3
313.15 K, x1 = 1	1477.09	38.62
318.15 K, x1 = 0.0493	1161.65	1.62
318.15 K, x1 = 0.1001	1208.15	2.07
318.15 K, x1 = 0.1526	1247.24	2.72
318.15 K, x1 = 0.2001	1276.71	3.27
318.15 K, x1 = 0.3001	1325.64	4.7
318.15 K, x1 = 0.4013	1362.67	6.63
318.15 K, x1 = 0.5004	1390.87	9.21
318.15 K, x1 = 0.5995	1413.44	12.26
318.15 K, x1 = 0.6929	1431.02	15.7
318.15 K, x1 = 0.814	1449.79	21.08
318.15 K, x1 = 0.9001	1461.03	25.54
318.15 K, x1 = 1	1472.32	32.33
323.15 K, x1 = 0.0493	1156.72	1.52
323.15 K, x1 = 0.1001	1203.21	1.9
323.15 K, x1 = 0.1526	1242.31	2.5
323.15 K, x1 = 0.2001	1271.78	3.02
323.15 K, x1 = 0.3001	1320.73	4.29
323.15 K, x1 = 0.4013	1357.79	6.05
323.15 K, x1 = 0.5004	1386.01	8.19
323.15 K, x1 = 0.5995	1408.61	10.68
323.15 K, x1 = 0.6929	1426.21	13.74
323.15 K, x1 = 0.814	1445.01	18.23
323.15 K, x1 = 0.9001	1456.26	21.94
323.15 K, x1 = 1	1467.56	27.06
